Columns and labels:
[1] = molecular target: T1, Aurora kinase A (Homo sapiens) (UniProt O14965); assay: Inhibition of full length human N-terminal GST-tagged Aurora A (1 to 403 residues) expressed in baculovirus expression system using fluorescence labelled kemptide as substrate at 50 times IC50 by electrophoretic mobility shift assay relative to control
T1 sequence (whole entry): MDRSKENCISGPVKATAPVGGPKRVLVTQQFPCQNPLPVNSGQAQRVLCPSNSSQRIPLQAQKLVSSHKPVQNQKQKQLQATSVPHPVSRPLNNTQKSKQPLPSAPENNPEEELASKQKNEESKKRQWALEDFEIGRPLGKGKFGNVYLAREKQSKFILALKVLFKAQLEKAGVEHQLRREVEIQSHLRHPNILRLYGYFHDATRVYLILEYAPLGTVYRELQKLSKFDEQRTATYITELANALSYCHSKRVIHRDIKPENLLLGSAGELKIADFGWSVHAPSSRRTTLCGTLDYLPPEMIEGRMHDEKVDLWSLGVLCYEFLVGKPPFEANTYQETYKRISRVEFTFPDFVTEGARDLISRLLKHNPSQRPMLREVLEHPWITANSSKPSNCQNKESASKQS

[2] = molecular target: Tyrosine-protein kinase SYK (Homo sapiens) (UniProt P43405); assay: (§1) Inhibition of full length human N-terminal GST-tagged SYK (1 to 635 residues) expressed in baculovirus expression system using fluorescence labelled Blk/Lyntide as substrate at 50 times IC50 by electrophoretic mobility shift assay relative to control
[3] = molecular target: MAP kinase-activated protein kinase 2 (Homo sapiens) (UniProt P49137); assay: as §1, with “MAPKAPK2” for “SYK”, “400” for “635”, “system coexpressing human His-tagged p38beta (1 to 364 residues)/MAP2K6 (1 to 334 residues)” for “system”, “GS peptide” for “Blk/Lyntide as”
[4] = molecular target: T2, Serine/threonine-protein kinase Nek2 (Homo sapiens) (UniProt P51955); assay: Inhibition of full length human N-terminal His-tagged NEK2 (1 to 445 residues) expressed in baculovirus expression system using fluorescence labelled CDK7 peptide substrate at 50 times IC50 by electrophoretic mobility shift assay relative to control
T2 sequence (whole entry): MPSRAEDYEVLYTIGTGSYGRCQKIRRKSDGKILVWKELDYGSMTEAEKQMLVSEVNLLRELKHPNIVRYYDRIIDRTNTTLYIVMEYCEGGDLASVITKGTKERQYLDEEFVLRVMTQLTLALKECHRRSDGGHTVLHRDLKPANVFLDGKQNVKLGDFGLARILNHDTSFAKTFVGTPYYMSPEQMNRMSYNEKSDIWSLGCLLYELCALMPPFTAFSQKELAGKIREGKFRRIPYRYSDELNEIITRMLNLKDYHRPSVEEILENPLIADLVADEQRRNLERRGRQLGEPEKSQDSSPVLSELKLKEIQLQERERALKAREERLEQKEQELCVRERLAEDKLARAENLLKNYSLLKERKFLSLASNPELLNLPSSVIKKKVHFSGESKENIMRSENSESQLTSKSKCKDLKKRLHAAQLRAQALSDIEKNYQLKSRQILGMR

[5] = molecular target: T3, Receptor-type tyrosine-protein kinase FLT3 (Homo sapiens, UniProt P36888); assay: Inhibition of human N-terminal GST-tagged FLT3 cytoplasmic domain (564 to 993 residues) expressed in baculovirus expression system using fluorescence labelled srctide as substrate by mobility shift assay in presence of ATP
T3 sequence (P36888 whole entry): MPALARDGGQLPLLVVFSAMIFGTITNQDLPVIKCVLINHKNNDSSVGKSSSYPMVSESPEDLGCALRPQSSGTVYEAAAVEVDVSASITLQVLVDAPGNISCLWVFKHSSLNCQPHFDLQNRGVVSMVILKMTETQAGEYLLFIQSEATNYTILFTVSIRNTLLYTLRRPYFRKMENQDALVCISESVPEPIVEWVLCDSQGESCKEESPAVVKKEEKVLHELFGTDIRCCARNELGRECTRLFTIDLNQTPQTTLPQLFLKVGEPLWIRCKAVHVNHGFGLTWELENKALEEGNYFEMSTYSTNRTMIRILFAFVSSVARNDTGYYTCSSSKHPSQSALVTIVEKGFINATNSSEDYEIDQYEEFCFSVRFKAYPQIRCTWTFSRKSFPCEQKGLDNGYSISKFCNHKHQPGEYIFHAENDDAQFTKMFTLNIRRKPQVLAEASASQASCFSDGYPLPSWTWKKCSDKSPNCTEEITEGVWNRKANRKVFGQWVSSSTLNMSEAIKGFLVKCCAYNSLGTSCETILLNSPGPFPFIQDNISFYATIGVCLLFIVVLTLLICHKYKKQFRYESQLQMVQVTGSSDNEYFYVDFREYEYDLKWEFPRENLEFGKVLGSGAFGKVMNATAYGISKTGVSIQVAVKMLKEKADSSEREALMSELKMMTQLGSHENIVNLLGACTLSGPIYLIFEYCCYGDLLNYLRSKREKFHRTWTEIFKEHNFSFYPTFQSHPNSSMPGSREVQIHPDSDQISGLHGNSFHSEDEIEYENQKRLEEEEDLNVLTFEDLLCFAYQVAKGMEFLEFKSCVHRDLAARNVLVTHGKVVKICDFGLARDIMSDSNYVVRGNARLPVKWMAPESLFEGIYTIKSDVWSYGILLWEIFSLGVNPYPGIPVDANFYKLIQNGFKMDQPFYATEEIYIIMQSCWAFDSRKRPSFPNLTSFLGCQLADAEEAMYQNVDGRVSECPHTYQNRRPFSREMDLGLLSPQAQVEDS

[6] = molecular target: Hepatocyte growth factor receptor (Homo sapiens) (UniProt P08581); assay: Inhibition of human N-terminal GST-tagged MET cytoplasmic domain (956 to 1390 residues) expressed in baculovirus expression system using fluorescence labelled srctide as substrate at 50 times IC50 by electrophoretic mobility shift assay relative to control
[7] = molecular target: Protein kinase C alpha type (Homo sapiens) (UniProt P17252); assay: Inhibition of full length human N-terminal GST-tagged PKCalpha (1 to 672 residues) expressed in baculovirus expression system using fluorescence labelled PKC peptide substrate at 50 times IC50 by electrophoretic mobility shift assay relative to control
[8] = molecular target: T4, Lymphokine-activated killer T-cell-originated protein kinase (Homo sapiens) (UniProt Q96KB5); assay: Inhibition of full length human N-terminal GST-tagged PBK (1 to 322 residues) expressed in baculovirus expression system using fluorescence labelled histone H3 peptide substrate at 50 times IC50 by electrophoretic mobility shift assay relative to control
T4 sequence (whole entry): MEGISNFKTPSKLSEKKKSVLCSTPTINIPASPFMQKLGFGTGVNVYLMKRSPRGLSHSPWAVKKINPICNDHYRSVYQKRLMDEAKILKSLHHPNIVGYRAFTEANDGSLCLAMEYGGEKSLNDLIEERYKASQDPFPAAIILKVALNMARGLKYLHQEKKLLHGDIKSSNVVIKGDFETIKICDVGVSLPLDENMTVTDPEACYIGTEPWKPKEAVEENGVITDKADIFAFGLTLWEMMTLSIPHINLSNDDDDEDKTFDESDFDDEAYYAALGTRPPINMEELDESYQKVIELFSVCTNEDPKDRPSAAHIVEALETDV

Hepatocyte growth factor receptor (Homo sapiens), sequence (P08581 whole entry, the tested form may be a part): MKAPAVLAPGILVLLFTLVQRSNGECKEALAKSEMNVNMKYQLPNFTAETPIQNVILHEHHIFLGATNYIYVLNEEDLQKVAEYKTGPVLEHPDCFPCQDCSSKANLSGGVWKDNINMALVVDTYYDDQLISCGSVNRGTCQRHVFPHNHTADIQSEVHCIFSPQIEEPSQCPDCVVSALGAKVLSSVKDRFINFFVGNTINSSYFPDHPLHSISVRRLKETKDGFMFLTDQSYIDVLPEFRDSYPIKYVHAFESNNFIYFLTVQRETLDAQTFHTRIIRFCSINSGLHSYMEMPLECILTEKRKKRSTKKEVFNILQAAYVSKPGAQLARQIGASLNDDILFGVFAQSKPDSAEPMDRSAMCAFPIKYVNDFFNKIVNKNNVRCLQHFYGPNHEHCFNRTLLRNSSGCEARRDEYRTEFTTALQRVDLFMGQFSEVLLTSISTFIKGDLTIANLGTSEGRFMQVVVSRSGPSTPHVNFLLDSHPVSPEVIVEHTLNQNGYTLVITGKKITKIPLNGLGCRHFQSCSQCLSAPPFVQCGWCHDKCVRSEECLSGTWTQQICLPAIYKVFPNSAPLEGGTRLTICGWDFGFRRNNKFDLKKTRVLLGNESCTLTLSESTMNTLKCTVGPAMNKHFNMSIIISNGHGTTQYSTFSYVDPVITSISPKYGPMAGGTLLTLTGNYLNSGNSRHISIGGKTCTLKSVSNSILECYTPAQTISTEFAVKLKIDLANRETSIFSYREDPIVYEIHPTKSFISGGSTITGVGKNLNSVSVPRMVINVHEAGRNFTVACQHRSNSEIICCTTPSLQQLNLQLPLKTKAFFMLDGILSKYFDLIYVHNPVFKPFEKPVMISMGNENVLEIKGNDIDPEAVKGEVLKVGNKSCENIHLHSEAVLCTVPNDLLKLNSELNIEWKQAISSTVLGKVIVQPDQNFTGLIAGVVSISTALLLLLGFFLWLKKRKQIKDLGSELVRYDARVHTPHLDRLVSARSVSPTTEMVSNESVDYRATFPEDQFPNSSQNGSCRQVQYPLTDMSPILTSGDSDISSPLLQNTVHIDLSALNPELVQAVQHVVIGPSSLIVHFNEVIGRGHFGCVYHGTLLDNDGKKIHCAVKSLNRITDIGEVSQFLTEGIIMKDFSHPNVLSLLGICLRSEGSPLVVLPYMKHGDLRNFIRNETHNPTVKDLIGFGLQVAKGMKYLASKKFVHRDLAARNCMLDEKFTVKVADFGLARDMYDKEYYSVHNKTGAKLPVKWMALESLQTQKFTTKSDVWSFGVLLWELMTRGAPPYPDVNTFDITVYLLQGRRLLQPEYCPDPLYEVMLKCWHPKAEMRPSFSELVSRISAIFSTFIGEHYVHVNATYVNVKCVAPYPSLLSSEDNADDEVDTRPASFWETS
MAP kinase-activated protein kinase 2 (Homo sapiens), sequence (P49137 whole entry, looked up, the tested form may be a part): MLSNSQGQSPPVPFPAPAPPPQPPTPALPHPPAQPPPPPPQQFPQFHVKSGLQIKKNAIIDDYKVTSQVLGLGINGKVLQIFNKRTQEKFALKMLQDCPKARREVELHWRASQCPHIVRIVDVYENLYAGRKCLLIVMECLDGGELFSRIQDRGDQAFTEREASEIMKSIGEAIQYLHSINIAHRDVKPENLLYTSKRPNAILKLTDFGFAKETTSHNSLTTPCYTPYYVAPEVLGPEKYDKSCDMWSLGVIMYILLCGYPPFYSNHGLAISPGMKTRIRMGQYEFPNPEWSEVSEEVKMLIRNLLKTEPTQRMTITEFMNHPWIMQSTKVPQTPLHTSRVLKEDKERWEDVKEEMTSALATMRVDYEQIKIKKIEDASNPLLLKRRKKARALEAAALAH

Work on `O=C(Nc1ccc(CN2CCN(c3ccccc3)CC2)cc1)c1n[nH]c2ccccc12` yielded an inhibition [1] of 6.1%, an inhibition [2] of 29.7% and an inhibition [3] of 9.7%. For the same compound, the inhibition [4] was -2.3%, the IC50 [5] was 9 nM and the inhibition [6] was -0.4%. For the same compound, the inhibition [7] was -0.9% and the inhibition [8] was -3.1%.
With `O=C(Nc1ccc(C(=O)N2CCN(c3ccccc3)CC2)cc1)c1n[nH]c2ccccc12` the inhibition [1] was 31.3%, the inhibition [2] was 40.2% and the inhibition [3] was -7.5%. It also gave an inhibition [4] of 0.2%, an IC50 [5] of 23 nM and an inhibition [6] of -0.6%. It also gave an inhibition [7] of 10.6% and an inhibition [8] of -1.9%.
With `O=C(Nc1ccccc1)c1n[nH]c2ccccc12` the inhibition [1] was 45.2%, the inhibition [2] was 73.5% and the inhibition [3] was 5.1%. For the same compound, the inhibition [4] was 2.3%, the IC50 [5] was 350 nM and the inhibition [6] was 4.6%. It also gave an inhibition [7] of 2.4% and an inhibition [8] of 4.5%.

Reference: ChEMBL document CHEMBL3792292, “Development of a potent and selective FLT3 kinase inhibitor by systematic expansion of a non-selective fragment-screening hit” (Bioorg Med Chem Lett, 2016)
